How the values were obtained:
[1] = in vivo; cited from earlier work
[2] = test system: NMDA receptor containing the NR2B subunit; assay: [3H]MK-801 binding test in vivo; parameters: species or system Sprague Dawley rats; conditions: [3H]MK-801 binding inhibitory rate in rat hippocampus, vehicle control 100%, excess MK-801 maleate 0%
Experimental: In order to confirm that compounds of the present disclosure exert functional antagonistic action on an NMDA receptor containing the NR2B subunit in vivo, a binding test was performed using tritium-labeled form of MK-801 ((5R,10S)-5-methyl-10,11-dihydro-5H-5,10-epiminodibenzo[a,d][7]annulene) ([3H]MK-801), which is a compound capable of binding to the opening site of the NMDA receptor.
The example compound (3 mg/kg/2 mL, 0.5% MC water) or vehicle (0.5% MC water 2 ml) was orally administered (p.o.) to Sprague Dawley rats (body weight 180-260 g). After a certain time (around after time-to maximum blood concentration), [3H]MK-801 (20 μCi/kg/mL, Muromachi Kikai) was intravenously administered. After 10 min, the rats were euthanized by decapitation, and subjected to craniotomy, and the hippocampus was collected. The collected hippocampus was homogenized in 30 volumes (30 mL per 1 g tissue) ice-cooled 20 mM HEPES (pH7.5, Hampton Research) using a homogenizer (T10 basic Ultra-Turrax) for 10 sec. […] The filter was washed four times with ice-cooled saline (5 mL, Otsuka Pharmaceutical), put into a scintillation vial, and then 10 mL of liquid scintillator A (FUJIFILM Wako Pure Chemical Corporation) was added thereto, and the residual radioactivity was counted using liquid scintillation counter (ALOKA LSC-6100).
Separately, the residual radioactivity in 100 μL of the homogenate before the filtration was counted in the same way. The value of [the residual radioactivity in the filter/the residual radioactivity in the 100 μL of the homogenate] was calculated as a [3H]MK-801 binding rate to the NMDA receptor expressing in each individual hippocampus tissue. […] The difference between the percentage of [^3H]MK-801 binding rate in the group orally administered with the example compound and that in the vehicle control group (100%) was analyzed as [^3H]MK-801 binding inhibitory rate by the example compound.

[3] = target: NMDA receptor composed of four subunits including two sets of heterodimers of NR1 and NR2B (GRIN1/GRIN2B) expressed in HEK 293 cells (Homo sapiens, UniProt Q13224); assay: NR2B Ca2+ influx assay; type: cell-based; conditions: glutamic acid and glycine induced Ca2+ influx, HEK 293 cells expressing human GRIN1 and GRIN2B; for inhibition at 10 µM: HEK293, final concentration 10 μM, read-out: % inhibited(10 μM); for % inhibited(10 μM): final concentration 10 μM
Experimental: The HEK 293 cells that express GRIN1 and GRIN2B were purchased from ChanTest (human NMDA (NR1/NR2B) receptor-expressing, stable replicating cell line (HEK 293) catalog no. CT6121).
Intracellular calcium-ion (Ca^2+) influx caused by glycine and glutamic acid respectively binding to NR1 and NR2B was used as an index of NMDA receptor activation.
The HEK 293 cells expressing GRIN1 and GRIN2B were cultured in a cell culture flask in an incubator (37° C., in 5% CO2) using a DMEM/F-12 (Cosmo Bio, 10-092-CM) medium supplemented with 10% FBS (fetal bovine serum, AusGene), 100 units/mL penicillin, 100 μg/mL streptomycin, 500 μg/mL neomycin, 100 μg/mL Zeocin (registered trademark of Invitrogen), and 5 μg/mL blasticidin.
On the day before the assay, the cells were detached from the flask by trypsinization, suspended in a seeding medium (DMEM (Invitrogen, 31053) supplemented with 10% FBS, 100 units/mL penicillin, and 100 μg/mL streptomycin) so as to be 8×10^5 cells/mL, seeded at 25 μL per well in a 384-well plate (Falcon, 356663) so as to be 20,000 cells/well, and cultured overnight using the incubator. On the day of the assay, tetracycline (Wako Pure Chemical, 209-16561) was diluted with the seeding medium at 2 μg/mL, and added at 25 μL/well to the plate into which the cells were seeded, and this was cultured for 2 hours in the incubator. Afterward, the medium was removed and washed with an assay buffer (137 mM NaCl, 4 mM KCl, 1.8 mM CaCl2), 10 mM HEPES (pH 7.2), 10 mM glucose, 0.1% BSA) at 50 μL/well. Next, a loading buffer (buffer wherein 2.5 μM Fluo-4 AM, 2 mM amaranth, and 1 mM tartrazine are added to the assay buffer) was added at 25 μL/well, and this was incubated in the incubator for 30 minutes and for 15 minutes at room temperature. Solutions wherein the Example compounds were diluted with the above-mentioned assay buffer so as to be 30 μM (final concentration 10 μM) were added at 25 μL/well, and these were left standing for 15 minutes at room temperature. Using FDSS7000EX/μCELL (Hamamatsu Photonics), an assay buffer including 30 μM glutamic acid and 30 μM glycine was added at 25 μL/well, and a fluorescence signal of an Excitation wavelength of 480 nm and an Emission wavelength of 540 nm was measured every 3 seconds for 5 minutes. The inhibitory activity was calculated as a relative activity value (inhibitory rate) wherein relative to an integrated value of florescence values of each well, an integrated value of fluorescence values of a well into which an assay buffer without glutamic acid and glycine was defined as 100% inhibition.

[4] = rodents; cited from earlier work
[5] = continuous intravenous administration; cited from earlier work
[6] = intravenous single administration; cited from earlier work
[7] = in vivo; cited from earlier work; remark: listed apart in the source

NMDA receptor composed of four subunits including two sets of heterodimers of NR1 and NR2B (GRIN1/GRIN2B) expressed in HEK 293 cells, sequence (Q13224 27-1484, other chains not shown): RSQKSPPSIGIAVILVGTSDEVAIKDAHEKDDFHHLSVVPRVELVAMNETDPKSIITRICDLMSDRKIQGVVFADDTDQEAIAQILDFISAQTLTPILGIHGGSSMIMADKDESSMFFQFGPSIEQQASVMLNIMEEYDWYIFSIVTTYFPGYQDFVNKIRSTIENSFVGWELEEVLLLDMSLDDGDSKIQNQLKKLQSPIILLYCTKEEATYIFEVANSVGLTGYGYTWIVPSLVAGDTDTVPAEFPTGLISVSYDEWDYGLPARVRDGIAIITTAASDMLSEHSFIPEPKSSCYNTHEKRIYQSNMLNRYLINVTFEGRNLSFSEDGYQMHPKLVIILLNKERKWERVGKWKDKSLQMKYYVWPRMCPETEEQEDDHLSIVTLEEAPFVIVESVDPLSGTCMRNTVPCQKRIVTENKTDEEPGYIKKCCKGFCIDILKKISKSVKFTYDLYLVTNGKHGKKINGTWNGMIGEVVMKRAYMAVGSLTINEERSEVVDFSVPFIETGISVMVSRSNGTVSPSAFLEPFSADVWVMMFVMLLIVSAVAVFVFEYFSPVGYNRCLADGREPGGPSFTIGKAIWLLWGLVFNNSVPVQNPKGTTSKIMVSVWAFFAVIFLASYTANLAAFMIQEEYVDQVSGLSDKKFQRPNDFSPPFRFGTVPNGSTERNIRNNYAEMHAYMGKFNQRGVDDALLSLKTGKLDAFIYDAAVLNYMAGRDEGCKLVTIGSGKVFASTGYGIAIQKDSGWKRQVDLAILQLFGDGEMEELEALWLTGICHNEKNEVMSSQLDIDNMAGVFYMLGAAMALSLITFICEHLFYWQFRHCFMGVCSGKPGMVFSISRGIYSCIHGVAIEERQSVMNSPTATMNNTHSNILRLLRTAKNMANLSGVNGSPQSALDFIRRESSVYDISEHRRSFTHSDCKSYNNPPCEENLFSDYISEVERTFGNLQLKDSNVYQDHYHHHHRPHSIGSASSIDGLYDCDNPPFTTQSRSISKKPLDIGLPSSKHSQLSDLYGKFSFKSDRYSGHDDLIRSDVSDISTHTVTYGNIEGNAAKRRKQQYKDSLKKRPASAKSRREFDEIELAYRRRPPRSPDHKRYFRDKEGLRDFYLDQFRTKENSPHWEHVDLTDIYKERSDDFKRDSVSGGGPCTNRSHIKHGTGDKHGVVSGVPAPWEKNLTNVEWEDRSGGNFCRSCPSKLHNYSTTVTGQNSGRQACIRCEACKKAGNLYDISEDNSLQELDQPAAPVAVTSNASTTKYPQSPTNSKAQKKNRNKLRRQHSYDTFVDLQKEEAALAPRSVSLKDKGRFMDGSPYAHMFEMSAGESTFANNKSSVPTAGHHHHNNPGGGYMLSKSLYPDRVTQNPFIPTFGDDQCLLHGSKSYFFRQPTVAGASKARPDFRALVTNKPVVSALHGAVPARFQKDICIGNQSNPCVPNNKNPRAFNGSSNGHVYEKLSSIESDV

Compound | inhibition at 10 µM [3] | also measured
CC(C(O)c1ccc(O)cc1)N1CCC(Cc2ccccc2)CC1 (centres unmarked) [Ifenprodil] |  | pain threshold value [1]: increased
C[C@H]1[C@@H](O)CC(=O)N1Cc1ccc(Oc2ccc(C(F)F)cc2F)nc1 [Example 38, (4S,5S)-1-({6-[4-(difluoromethyl)-2-fluorophenoxy]pyridin-3-yl}methyl)-4-hydroxy-5-methylpyrrolidin-2-one] | 95% | Inhibitory Rate (3 mg/kg, p.o.) [2]: 22%
C[C@H]1CCC(=O)N1Cc1cnc(Oc2ccc(F)cc2F)nc1 [Example 45, (5S)-1-{[2-(2,4-difluorophenoxy)pyrimidine-5-yl]methyl}-5-methylpyrrolidine-2-one] | 96% | Inhibitory Rate (3 mg/kg, p.o.) [2]: 13%
C[C@@H]([C@@H](O)c1ccc(O)cc1)N1CCC(O)(c2ccccc2)CC1 [CP-101,606] |  | number of occurrences and depth of cortical spreading depression [4]: suppress the number of occurrences of and the depth of cortical spreading depression; treatment-resistant depression symptoms [5]: significantly improved
C[C@H]1COC(=O)N1Cc1cnc(Oc2ccc(Cl)cc2F)nc1 [Example 49, (4S)-3-{[2-(4-chloro-2-fluorophenoxy)pyrimidin-5-yl]methyl}-4-methyl-1,3-oxazolidin-2-one] | 97% | Inhibitory Rate (3 mg/kg, p.o.) [2]: 19%
Cc1ccc(Oc2ccc(CN3C(=O)OC[C@@H]3C)cn2)c(F)c1 [Example 25, (4S)-3-{[6-(2-fluoro-4-methylphenoxy)pyridin-3-y]methyl}-4-methyl-1,3-oxazolidin-2-one] | 96% | 
Ro25-6981 |  | number of occurrences and depth of cortical spreading depression [4]: suppress the number of occurrences of and the depth of cortical spreading depression
Cc1ccc(Oc2ccc(CN3C(=O)C[C@@H](O)[C@H]3C)cc2)cc1 [Example 12, (4R,5R)-4-hydroxy-5-methyl-1-{[4-(4-methylphenoxy)pheny]methyl}pyrrolidin-2-one] | 93% | 
C[C@H]1CNC(=O)N1Cc1ccc(Oc2ccc(F)cc2F)nc1 [Example 35, (5S)-1-{[6-(2,4-difluorophenoxy)pyridin-3-yl]methyl}5-methylimidazolidin-2-one] | 96% | 
CNC1(c2ccccc2Cl)CCCCC1=O (centres unmarked) [ketamine] |  | depression symptoms associated with major depression and bipolar disorder [6]: rapidly and continuously improves depression symptoms
Cc1ccc(Oc2ccc(CN3C(=O)C[C@@H](O)[C@@H]3C)cc2)cc1 [Example 10, (4R,5S)-4-hydroxy-5-methyl-1-{[4-(4-methylphenoxy)phenyl]methyl}pyrrolidin-2-one] | 94% | 
C[C@H]1CCC(=O)N1Cc1cnc(Oc2ccc(Cl)cc2F)nc1 [Example 46, (5S)-1-{[2-(4-chloro-2-fluorophenoxy)pyrimidin-5-yl]methyl}-5-methylpyrrolidin-2-one] | 97% | 
Cc1ccc(Oc2ccc(CN3C(=O)CCC3C)cc2)cc1 (single isomer, unassigned) [Example 2, 5-methyl-1-{[4-(4-methylphenoxy)pheny]methyl}pyrrolidin-2-one (optical isomer)] |  | % inhibited(10 μM) ([3]; 10 µM): 98%
Cc1ccc(Oc2ncc(CN3C(=O)CCC3C)cn2)cc1 (centres unmarked) [Example 5, 5-methyl-1-{[2-(4-methylphenoxy)pyrimidin-5-yl]methyl}pyrrolidin-2-one] | 91% | 
C[C@H]1COC(=O)N1Cc1ccc(Oc2c(F)cc(F)cc2F)nc1 [Example 28, (4S)-4-methyl-3-{[6-(2,4,6-trifluorophenoxy)pyridin-3-yl]methyl}-1,3-oxazolidin-2-one] | 96% | 
Cc1ccc(Oc2ccc(CN3C(=O)C[C@H](O)[C@@H]3C)nc2)cc1 [Example 16, (4S,5S)-4-hydroxy-5-methyl-1-{[5-(4-methylphenoxy)pyridin-2-yl]methyl}pyrrolidin-2-one] | 95% | 
C[C@H]1[C@@H](O)CC(=O)N1Cc1ccc(Oc2ccc(F)cc2)cc1 [Example 9, (4S,5S)-1-{[4-(4-fluorophenoxy)phenyl]methyl}-4-hydroxy-5-methylpyrrolidin-2-one] | 96% | 
Cc1ccc(Oc2ccc(CN3C(=O)C[C@H](O)[C@@H]3C)cn2)cc1.Cl [Example 14, (4S,5S)-4-hydroxy-5-methyl-1-{[6-(4-methylphenoxy)pyridin-3-yl]methyl}pyrrolidin-2-one] |  | % inhibited(10 μM) [3]: 96%
Cc1ccc(Oc2cnc(CN3C(=O)CCC3C)cn2)cc1 (centres unmarked) [Example 4, 5-methyl-1-{[5-(4-methylphenoxy)pyrazin-2-yl]methyl}yrrolidin-2-one] | 93% | 
C[C@H]1[C@@H](O)CC(=O)N1Cc1ccc(Oc2ccc(Cl)cc2F)nc1 [Example 43, (4S,5S)-1-{[6-(4-chloro-2-fluorophenoxy)pyridin-3-yl]methyl}4-hydroxy-5-methylpyrrolidin-2-one] | 98% | 
CC12CC3CC(C)(C1)CC(N)(C3)C2 [memantine] |  | peripheral symptoms of dementia [7]: partially ameliorated
C[C@H]1[C@@H](O)C(F)(F)C(=O)N1Cc1ccc(Oc2c(F)cc(F)cc2F)nc1 [Example 34, (4R,5S)-3,3-difluoro-4-hydroxy-5-methyl-1-{[6-(2,4,6-trifluorophenoxy)pyridin-3-yl]methyl}pyrrolidin-2-one] | 97% | 

From patent publication US12630509B2, “Heterocyclic NMDA antagonists” (TAKEDA PHARMACEUTICAL COMPANY LIMITED, priority 2019, dated 2026)
